Numbered stars: 1 amine (or outer) side, 2 acyl side, 3 side chain; on linkers, the order of the positions; unused ones are H or OH. Square brackets hold non-standard residues; d marks the D form. Peptide text beside a SMILES is read from it. * marks the point of attachment. 5FAM = O=C1OC2(c3ccc(O)cc3Oc3cc(O)ccc32)c2ccc(C(=O)*)cc21; X1 = CO[C@H]1CC(N[*:1])(C(=O)[*:2])C[C@@H]1OC; αMeL = CC(C)C[C@](C)(N)C(=O)O; Ac5c = NC1(C(=O)O)CCCC1
What was measured:
[1] = Resistance to protease digestion with pronase; type: in vitro ADME, Streptomyces griseus; details: 10 µM peptide in 2.5 × 10^−6 w/v% pronase/PBS, 37 °C, RP-HPLC, α-CHCA internal standard, read-out: intact peptide after incubation with pronase
Source text: (§1) Next, we examined the stability of peptides against protease digestion using trypsin (Fig. 4a) and pronase (Fig. 4b). One of the advantages of peptide foldamers containing dAAs is their high resistance to degradation by proteases[38]–[40]. Trypsin is a serine protease that cleaves amide bonds at the C terminus of cationic amino acids such as Arg and lysine. Pronase is a non-specific protease mixture produced in the culture supernatant of Streptomyces griseus. Ac5c, Ac5c^dOM, (αMe)Leu, and Leu peptides were incubated with trypsin or pronase for 1, 2, and 4 h, and then rate of intact peptide was evaluated by RP-HPLC using α-cyano-4-hydroxycinnamic acid (α-CHCA) as an internal standard. Leu peptide was promptly degraded by both trypsin and pronase, and reached 0% intact peptide after 4 h incubation in a similar manner to Arg peptide reported previously[24],[25]. On the other hand, approximately 80% of Ac5c, Ac5c^dOM, and (αMe)Leu peptides remained intact even after 4 h incubation. Introduction of dAAs into peptides markedly elevated resistance to protease digestion, whether or not peptides formed stable helical structures. In other words, peptides composed of only natural α-amino acids were easily degraded by proteases independently of their peptide secondary structures.
(§2) One-hundred microliters of peptide solution (10 µM) in 2.5 × 10^−6 w/v% trypsin or pronase/phosphate buffer saline (PBS) was incubated at 37 °C for 0, 1, 2, and 4 h. After each incubation time, 250 µL of 1% TFA/PBS solution was added to inactivate the proteases, and 50 µL of 1/2 diluted saturated α-CHCA solution was added as an internal standard, followed by HPLC analysis, which was performed using the above-mentioned conditions.

[2] = Resistance to protease digestion with trypsin; type: in vitro ADME; details: 10 µM peptide in 2.5 × 10^−6 w/v% trypsin/PBS, 37 °C, RP-HPLC, α-CHCA internal standard, read-out: intact peptide after incubation with trypsin
Source text: as §1, §2

[3] = tested on: CHO-K1 cells; assay: Inhibition of cellular uptake by specific endocytosis inhibitors; type: cell-based; details: 30 min pre-incubation 37 °C, 1 µM peptide, 1 h, flow cytometry, n = 3; for uptake in presence of nystatin (caveolae-mediated endocytosis inhibitor): CHO-K1, nystatin 25 µg/mL; for uptake in presence of sucrose (clathrin-mediated endocytosis inhibitor): CHO-K1, sucrose 0.4 M
Protocol: To obtain further information on the cellular uptake mechanisms of peptides, inhibitory experiments were carried out using specific endocytosis inhibitors (amilorilde: macropinocytosis; sucrose: clathrin-mediated endocytosis; nystatin: caveolae-mediated endocytosis) against CHO-K1 cells (Fig. S5). […] (αMe)Leu peptide appeared to internalize into CHO-K1 cells via all three routes, while Ac5c peptide appeared to internalize mainly via clathrin-mediated endocytosis and caveolae-mediated endocytosis.
CHO-K1 cells were seeded on 24-well culture plates (100,000 cells/well) and incubated in 400 µL of DMEM containing 10% FBS. The medium was then replaced with fresh medium containing 10% FBS in the absence (untreated) or presence of amiloride (5 mM), sucrose (0.4 M), or nystatin (25 µg/mL), cells were pre-incubated at 37 °C for 30 min. A peptide solution was added to each well at a concentration of 1 µM. The medium was removed after 1-h incubation and subsequent operations were conducted in the same manner as cellular uptake experiments.
A c5cAc5c (aMe L e uMe)Leu untreated ami loride su cro se n ystatin
Figure S5. Effects of inhibitors on internalization of peptides against CHO-K1 cells. Error bars represent the standard deviation, n = 3. *P < 0.05, **P < 0.01.

CC(C)C[C@](C)(NC(=O)[C@H](CCCNC(=N)N)NC(=O)[C@H](CCCNC(=N)N)NC(=O)[C@](C)(CC(C)C)NC(=O)[C@H](CCCNC(=N)N)NC(=O)[C@H](CCCNC(=N)N)NC(=O)[C@](C)(CC(C)C)NC(=O)[C@H](CCCNC(=N)N)NC(=O)[C@H](CCCNC(=N)N)NC(=O)CNC(=O)c1ccc2c(c1)C(=O)OC21c2ccc(O)cc2Oc2cc(O)ccc21)C(N)=O [(αMe)Leu peptide] (5FAM-GRR[αMeL]RR[αMeL]RR[αMeL]-NH2)
remaining at 4 h, 10 µM [1]: ~80% | remaining at 4 h, 10 µM [2]: ~80% | uptake in presence of nystatin (caveolae-mediated endocytosis inhibitor) [3]: significantly decreased | uptake in presence of sucrose (clathrin-mediated endocytosis inhibitor) [3]: significantly decreased

N=C(N)NCCC[C@H](NC(=O)CNC(=O)c1ccc2c(c1)C(=O)OC21c2ccc(O)cc2Oc2cc(O)ccc21)C(=O)N[C@@H](CCCNC(=N)N)C(=O)NC1(C(=O)N[C@@H](CCCNC(=N)N)C(=O)N[C@@H](CCCNC(=N)N)C(=O)NC2(C(=O)N[C@@H](CCCNC(=N)N)C(=O)N[C@@H](CCCNC(=N)N)C(=O)NC3(C(N)=O)CCCC3)CCCC2)CCCC1 [Ac5c peptide] (5FAM-GRR[Ac5c]RR[Ac5c]RR[Ac5c]-NH2)
remaining at 4 h, 10 µM [1]: ~80% | remaining at 4 h, 10 µM [2]: ~80% | uptake in presence of amiloride (macropinocytosis inhibitor) ([3]; CHO-K1, amiloride 5 mM): significantly decreased | uptake in presence of nystatin (caveolae-mediated endocytosis inhibitor) [3]: significantly decreased | uptake in presence of sucrose (clathrin-mediated endocytosis inhibitor) [3]: significantly decreased

CO[C@H]1CC(NC(=O)[C@H](CCCNC(=N)N)NC(=O)[C@H](CCCNC(=N)N)NC(=O)C2(NC(=O)[C@H](CCCNC(=N)N)NC(=O)[C@H](CCCNC(=N)N)NC(=O)C3(NC(=O)[C@H](CCCNC(=N)N)NC(=O)[C@H](CCCNC(=N)N)NC(=O)CNC(=O)c4ccc5c(c4)C(=O)OC54c5ccc(O)cc5Oc5cc(O)ccc54)C[C@H](OC)[C@@H](OC)C3)C[C@H](OC)[C@@H](OC)C2)(C(N)=O)C[C@@H]1OC [Ac5c^dOM peptide] (5FAM-GRR[X1]RR[X1]RR[X1]-NH2)
remaining at 4 h, 10 µM [1]: ~80% | remaining at 4 h, 10 µM [2]: ~80%

Reference: paper PMC6362038, “Secondary structures and cell-penetrating abilities of arginine-rich peptide foldamers” (Scientific Reports, 2019)
